Laboratory results published in PubChem BioAssay (NCI).
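1) Cells in 96-well plates. 2) Compound, 48 h, 5 concentrations. 3) Linear interpolation between surrounding doses. 4) Unreached endpoint = highest concentration. GI50 marks 50% less growth. The concentration for full growth arrest is given as TGI.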

What was measured:
Test in all cases: inhibition of tumour cell growth, NCI panel, 48 h
HL-60(TB) leukemia = system: HL-60(TB) leukemia
SN12C renal = system: SN12C renal
ACHN renal = system: ACHN renal
MDA-MB-231 breast = system: MDA-MB-231 breast
OVCAR-8 ovarian = system: OVCAR-8 ovarian
EKVX NSCLC = system: EKVX NSCLC
NCI-H522 lung = system: NCI-H522 lung
K-562 leukemia = system: K-562 leukemia
SF-539 CNS = system: SF-539 CNS
SW-620 colon = system: SW-620 colon

SMILES	TGI (HL-60(TB) leukemia) [µM]	TGI (SN12C renal) [µM]	TGI (ACHN renal) [µM]	TGI (MDA-MB-231 breast) [µM]	TGI (OVCAR-8 ovarian) [µM]	TGI (EKVX NSCLC) [µM]	TGI (NCI-H522 lung) [µM]	TGI (K-562 leukemia) [µM]	TGI (SF-539 CNS) [µM]	TGI (SW-620 colon) [µM]	GI50 (HL-60(TB) leukemia) [µM]	GI50 (SN12C renal) [µM]	GI50 (SW-620 colon) [µM]	GI50 (ACHN renal) [µM]	GI50 (MDA-MB-231 breast) [µM]	GI50 (OVCAR-8 ovarian) [µM]	GI50 (EKVX NSCLC) [µM]	GI50 (K-562 leukemia) [µM]	GI50 (SF-539 CNS) [µM]	GI50 (NCI-H522 lung) [µM]
Cc1cnc2[nH]c(-c3cccc(F)c3)cc(=O)c2c1	0.0628	> 100	> 100	0.614	1.5	> 100	0.108	> 100	0.263	–	–	–	–	–	–	–	–	–	–	–
N#Cc1nc(CCCN2C(=O)c3ccccc3C2=O)oc1N	–	> 100	> 100	> 100	> 100	> 100	> 100	> 100	> 100	> 100	–	–	–	–	–	–	–	–	–	–
CCC(=O)Nc1ccc(NS(=O)(=O)c2ccc(Cl)cc2)cc1	> 100	> 100	> 100	–	> 100	> 100	> 100	> 100	> 100	> 100	–	–	–	–	–	–	–	–	–	–
CC1CCc2sc3nc4n(c(=O)c3c2C1)CC(C)S4 (stereo not given)	–	53.7	62.2	52.3	> 100	70.4	> 100	> 100	–	> 100	–	–	–	–	–	–	–	–	–	–
NCCN(CCN(C(=O)Nc1ccccc1)c1ccccc1)C(=O)Nc1ccccc1	74.8	69.7	59.9	> 100	52.2	67.3	41.1	> 100	–	48.3	–	–	–	–	–	–	–	–	–	–
CCOC(=O)/C=C(/C=C\COC1CCCCO1)c1ccccc1 (stereo not given)	44.2	49.5	> 100	> 100	59.9	> 100	83.5	> 100	–	80.4	–	–	–	–	–	–	–	–	–	–
c1c(N2CCOCC2)ssc1=[N+]1CCOCC1	> 100	> 100	> 100	–	> 100	> 100	> 100	> 100	> 100	> 100	–	–	–	–	–	–	–	–	–	–
COc1cc(OC)cc(Oc2nc3cc(F)c(F)cc3nc2-c2ccccc2)c1	> 100	> 100	> 100	–	> 100	> 100	> 100	–	> 100	> 100	–	–	–	–	–	–	–	–	–	–
COc1cc2[nH]c(=O)c3cc(-c4ccccc4)cc4c(Cl)nc(c1OC)c2c43	12.3	> 100	77.6	> 100	98.4	64	> 89.2	> 100	–	> 66.1	–	–	–	–	–	–	–	–	–	–
CCCCN1C(=O)CC2[C@@H]3CCc4cc(OC)ccc4C3CC[C@]2(C)C1=O (stereo not given in full)	> 10	> 10	> 10	> 10	> 10	> 10	–	> 10	> 10	> 10	–	–	–	–	–	–	–	–	–	–
COc1ccc2c(c1)-c1c(c3cc(OC)ccc3n1CCN(C)C)CC2	–	26	28.4	28.2	32.6	–	34.1	26.5	29.8	31.1	–	–	–	–	–	–	–	–	–	–
Nc1c(S(N)(=O)=O)cc(S(N)(=O)=O)cc1S(N)(=O)=O	–	> 100	> 100	> 100	> 100	> 100	> 100	> 100	–	> 100	–	–	–	–	–	–	–	–	–	–
Clc1ccc(OCc2nnc(COc3ccc(OCc4nnc(COc5ccc(Cl)cc5Cl)o4)c(Cl)c3)o2)c(Cl)c1	57.3	> 100	> 100	63.1	> 100	45.2	38	53.3	–	> 100	–	–	–	–	–	–	–	–	–	–
CC(=O)N(C)c1ccc(Nc2ccnc3ccc4nn(C)nc4c23)cc1	38.8	> 100	30.2	–	> 100	76.1	41.2	–	46.4	> 100	–	–	–	–	–	–	–	–	–	–
CCN(CCCCCCCCCCN1CC(=O)N(CCCCCCCCCCN(CC)Cc2ccccc2OC)CC1=O)Cc1ccccc1OC	3.6	3.57	6.82	3.61	3.29	8.14	–	12	3.33	3.95	1.02	1.51	1.75	2.36	1.56	1.47	1.82	0.388	1.58	–
O=c1[nH]c(=O)n(C2CC(O)C(CO)O2)cc1OC/C=C/Cc1ccccc1 (stereo not given)	> 100	> 100	> 100	> 100	> 100	> 100	> 100	> 100	–	–	–	–	–	–	–	–	–	–	–	–
CCOC(=O)Cn1nnc2cc(Nc3c(C)[n+]([O-])c4cc(F)c(OCC)cc4[n+]3[O-])ccc21	> 100	–	> 100	> 100	> 100	> 100	> 100	> 100	> 100	> 100	–	–	–	–	–	–	–	–	–	–
O=P1(C(O)/C=C/c2ccccc2)N(Cc2ccccc2)[C@@H]2CCCC[C@H]2N1Cc1ccccc1 (stereo not given in full)	5.88	11.6	37.1	26.2	13.2	35.9	12.1	16.4	–	33.3	–	–	–	–	–	–	–	–	–	–
COCC#C[C@@]1(O)CCCCC1CC(OC)OC (stereo not given in full)	> 100	> 100	> 100	> 100	> 100	> 100	82.5	> 100	–	–	–	–	–	–	–	–	–	–	–	–
CCOc1snc(C(Cl)(Cl)Cl)c1Cl	37.7	89.7	> 100	> 100	94.4	79.4	–	> 100	> 100	> 100	–	–	–	–	–	–	–	–	–	–
O=C1/C(=C/c2ccc(Cl)cc2)CCCc2ccc(F)cc21	> 100	42.9	68.5	52.8	75.1	61	54.5	> 100	–	31.6	17.2	20.1	15.4	27.8	19.8	22.8	27.9	11.1	–	12.2
